Test results published in US20180051017A1, “AGENT FOR TREATMENT OF SCHIZOPHRENIA” (Sumitomo Dainippon Pharma Co., Ltd., priority 2002, published 2018).
Where a name gives a salt, the structure may show the parent alone.

Tested on: patients with schizophrenia in the acute exacerbation phase
Test: First stage phase II clinical trial: extrapyramidal symptom rating scales (AIMS, BAS, SAS)
Type: in vivo, human
Details: for SAS (parkinsonism) score change, Average (SD) / BAS Global score (akathisia) change, Average (SD) / AIMS (dyskinesia) score change, Average (SD): n = 44-47
Procedure: According to the procedures as shown in Table 1 as described below, the placebo-controlled double blind experiment was done on 149 patients with schizophrenia in the acute exacerbation phase at 15 facilities in USA. The efficacy and safeness were studied when SM-13496 at a dose of 40 mg or 120 mg, or a placebo was orally administered once a day for 6 weeks after placebo washout.
As is shown in Table 7, among the adverse events, the main side effects, a relationship of which to the SM-13496 cannot be denied, was suppression, nausea, akathisia, free-floating vertigo (excluding rotatory vertigo), sleepiness, headache. The occurrence of dystonic reaction was low (less than 4%) in the SM-13496-treated groups.

O=C1[C@@H]2[C@@H]3CC[C@@H](C3)[C@@H]2C(=O)N1C[C@@H]1CCCC[C@H]1CN1CCN(c2nsc3ccccc23)CC1 [SM-13496, (1R,2S,3R,4S)-N-[(1R,2R)-2-[4-(1,2-benzoisothiazol-3-yl)-1-piperazinyl-methyl]-1-cyclohexylmethyl]-2,3-bicyclo[2.2.1]heptanedicarboximide hydrochloride]
SAS (parkinsonism) score change, Average (SD) (40 mg orally once a day for 6 weeks, p 0.588 vs placebo): 0.1 (1.08) | BAS Global score (akathisia) change, Average (SD) (40 mg orally once a day for 6 weeks, p 0.687 vs placebo): 0.1 (1.04) | AIMS (dyskinesia) score change, Average (SD) (40 mg orally once a day for 6 weeks, p 0.978 vs placebo): 0.7 (2.88) | Changes in AIMS, BAS, SAS score between the treated groups (40 mg, 120 mg and placebo groups): no significant difference | BAS Global score (akathisia) change, Average (SD) (120 mg orally once a day for 6 weeks, p 0.352 vs placebo): 0.4 (0.94) | AIMS (dyskinesia) score change, Average (SD) (120 mg orally once a day for 6 weeks, p 0.467 vs placebo): 0.2 (2.21) | SAS (parkinsonism) score change, Average (SD) (120 mg orally once a day for 6 weeks, p 0.808 vs placebo): 0.1 (1.11) | Ratio of the patients requiring benztropine (SM-13496-treated groups): 24%
